Results as given in patent publication US5770625A, “Butyryl-tyrosinyl spermine, analogs thereof and methods of preparing and using same” (priority 1994, dated 1998).

Assays:
[1] = test system: locust muscle QUIS-R; assay: Voltage dependence of antagonism of locust muscle QUIS-R; details: block relieved above about -100 mV
Description: PhTX-343 binds to the QUIS-R channel, possible at a site located within its selectivity filter (35,36). Other studies in our laboratories have shown that antagonism of locust muscle QUIS-R by PhTX-343 and compound 13, the diiodo analogue, is voltage-dependent, as one might expect for open channel blockers carrying a net positive charge. […] Cation-selective membrane channels are generally envisaged as aqueous pores lined by fixed negative charges. In the case of the amphibian nicotinic acetylcholine receptor the latter are thought to be concentrated in three clusters in the vicinity of the selectively filter (41). […] The relative disposition and number of protonated groups on the toxin seems to be important in determining potency, which appears to be maximized for a given number of protonated groups when these have a constant spacing of three methylenes on their equivalents.

[2] = test system: postsynaptic QUIS-R of locust leg muscle; assay: Antagonism of neurally-evoked twitch contraction of locust retractor unguis nerve-muscle preparation; set-up: species or system Schistocerca gregaria; details: for effect on the neurally-evoked twitch contraction (in words): toxin 1-10 μM
Description: Electrophysiological studies. The metathoracic retractor unguis nerve-muscle preparation of the locust Schistocerca gregaria was dissected and mounted in a small Perspex bath as described previously (21). The pharmacological activity on the locust nerve muscle preparation, using reduction in neurally evoked twitch amplitude as the measure of activity. Ten fractions were pharmacologically active. […] Further purification of this fraction by reverse-phase HPLC gave four peaks (FIG. 2B), the most pharmacologically was in the major peak (hatched FIG. 2B) . This fraction gave 1.1 mg of toxin as amorphous powder.
The retractor unguis muscle and its nerve were dissected from the metathoracic legs of adult, female locusts (Schistocerca gregaria) and mounted in a Perspex perfusion chamber as described by Usherwood and Machili (21) and Bateman, et al. (14). The muscle was stretched to maximal body length and attached at its tendon or apodeme to a Grass FT 10-strain gauge by a short length of nylon thread. The volume of the muscle bath was about 0.5 ml and its contents could be exchanged within 1 sec. The preparation was perfused continuously at the rate of 5-10 ml min^-1 (except during the application of toxin (see below)) with standard locust saline of the following composition (mM): NaCl, 180; KCl, 10; CaCl2, 2; Hepes, 10; buffered to pH 6.8. The retractor unguis muscle is innervated by two excitatory motoneurons (30) and an inhibitory motoneuron (19,32), but the influence of the latter on the responsiveness of the muscle is slight. Maximal stimulation of the retractor unguis nerve at 0.2 Hz produced a series of twitch contractions of constant amplitude, which were maintained for many hours in good preparations. The test compounds were kept at -20° C. They were dissolved in locust saline on the day of the assay and tested at room temperature. The compounds were applied by pipette to a nerve-muscle preparation such that the contents of the perfusion bath were completely replaced by the test solution. Exposure to the test compound lasted 20 min. Because of the limited availability of some of the compounds, the preparation was not perfused during this period. However, the amplitude of the retractor unguis muscle twitch rarely changed by more than 5-10% over a 20 minute period. During application of the test solutions the stimulation frequency was raised to 0.6 Hz for brief periods to test for stimulus frequency-dependent effects on twitch amplitude (31,37). Dose-inhibition data were obtained by testing the effects, on single retractor unguis muscle preparations, of a range of concentrations of the test compounds. Each concentration of the respective samples was tested at least thee times, and each compound was assayed usually over a 100-fold concentration range (a total of 7-10 concentrations). The standard deviations for twitch inhibition for any given concentration of a toxin rarely exceed 10%. Those compounds for which the deviation was greater than this are identified in Tables 1-7. There was some variation in the potency of PhTX-343 and the test compounds between nerve-muscle preparations. In order to compensate for this, the following procedure was adopted: PhTX-343 was assayed at a variety of concentrations on eight retractor unguis nerve-muscle preparations to give a cumulative dose-inhibition relationship for this toxin. The concentration of PhTX-343 which reduced the twitch contraction by 50% (IC50) was then determined by fitting a curve to the data using the following equation: [formula] where: [T]= toxin concentration, I= % inhibition, Imax =maximum inhibition= 100% and n' represents the Hill slope coefficient. […] The ratio of the actual reduction in twitch amplitude obtained with this single concentration of PhTX-343 and the 50% reduction that was anticipated from the cumulative dose-inhibition relationship for this toxin, was then used as a factor to normalize the data for the test compound. […]

[3] = test system: postjunctional, quisqualate-sensitive glutamate receptors; assay: Response of the retractor unguis muscle to bath-applied L-glutamate; set-up: species or system Schistocerca gregaria
[4] = biological target: NMDA receptors of rat brain; assay: Inhibition of glutamate-induced [3H]MK-801 binding to synaptic membranes (filtration assay); details: read-out: EC50 (the concentration that inhibits 50% of binding) of [3H]MK-801
Description: Binding PhTX-433 to NMDA Receptor. The NMDA receptor is identified by its high affinity for the compound (+)-5-methyl-10,11-dihydro-5H-dibenzo[a,d]cyclohepten-5,10-imine maleate (MK-801). Th is compound is an anticonvulsant introduced by Merck Sharp & Dohme Co. and is a potent non-competitive antagonist of the NMDA receptor. Binding of [^3 H]MK-801 t o synaptic membranes from rat brain after thorough washing is extremely poor. However, the binding (measured by a filtration assay) is potentiated by glutamate in a dose-dependent manner and reaches maximal potentiation at 10 μM glutamate (26). The increase in binding of [^3 H]MK-801 resulting from addition of glutamate has been used as an index of NMDA recep tor binding.

SMILES | voltage dependence of antagonism [1] | increase in potency compared with PhTX-343 [2] | potency compared with natural PhTX-433 (in words) [2] | physiological activity relative to that of PhTX-433, by locust muscle twitch inhibition concentration ([2]; PhTX-433 = 100%) | IC50 ([2]; cumulative dose-inhibition on eight nerve-muscle preparations, read-out: concentration which reduced the twitch contraction by 50% (IC50)) | effect on the neurally-evoked twitch contraction (in words) [2] | effect on the response of the muscle to L-glutamate [3] | EC50 [4]
CCCC(=O)N[C@@H](Cc1cc(I)c(O)c(I)c1)C(=O)NCCCNCCCCNCCCN [Compound 13] | voltage-dependent | 4.5 fold | – | – | – | – | – | –
CCCC(=O)N[C@@H](Cc1ccc(O)cc1)C(=O)NCCCNCCCCNCCCN [Compound 1, PhTX-343] | voltage-dependent | – | somewhat less active | 80% | 23 µM | influenced the twitch contraction in the same qualitative fashion as PhTX-433 | – | –
CCCC(=O)N[C@@H](Cc1ccc(O)cc1)C(=O)NCCCCNCCCNCCCN [Compound 2, PhTX-433] | – | – | – | – | – | abolished the twitch | reduced the response of the retractor unguis muscle to L-glutamate | 25 µM
